SMILES strings stand for the structures.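 Results reflect a 48-hour exposure of cells in 96-well plates to compound at five concentrations. At the GI50, growth is halved.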 The source made the active and inactive calls. Rule as the data show it: active = GI50 up to about 1.1 µM and inactive = higher. Where only a bound is given, the exact number is not on record here.

Holding throughout (experiment): inhibition of tumour cell growth, NCI panel, 48 h
Assay [1] concerns MOLT-4.
Assay [2] has as its system HOP-92.
For assay [3], the system named is 786-0.
For assay [4], the system named is IGROV-1.
Assay [5] deals with LOX IMVI.
Assay [6] deals with DU-145.
Assay [7] relates to PC-3.
Assay [8] has as its system SF-268.
The test system of assay [9] is NCI-H226.
For assay [10], the system named is SW-620.
In assay [11] the test system is MDA-MB-231.
The subject of assay [12] is RPMI-8226.
Assay [13] relates to MDA-MB-435.
The subject of assay [14] is HCT-116.
Assay [15] deals with NCI-H460.
Assay [16] has as its system SNB-19.
The subject of assay [17] is U-251.
Assay [18] deals with UACC-257.
The subject of assay [19] is BT-549.
The subject of assay [20] is NCI-H23.

For the molecule `COc1cc2c(/C=C3/C(=O)Nc4ccc(O)cc43)c(Cl)[nH]c2cc1C`, the GI50 is 0.039 µM (active) in assay [1]; 15.9 µM (inactive) in [2]; 0.173 µM (active) in [3]; 0.441 µM (active) in assay [4]; 0.0775 µM (active) in [5]; 0.245 µM (active) in assay [6]. Also, the GI50 was 0.359 µM (active) in assay [7]; 0.927 µM (active) in assay [8]; 0.258 µM (active) in assay [9]; 0.0955 µM (active) in assay [10]; 0.283 µM (active) in assay [11]; 0.275 µM (active) in [12]. In addition, the GI50 is < 0.0137 µM (active) in assay [13]; 0.0897 µM (active) in [14]; 0.454 µM (active) in assay [15]; 0.146 µM (active) in [16]; 0.0521 µM (active) in [17]; 0.615 µM (active) in assay [18]. In addition, the figures for the GI50 in assay [19] and in assay [20] were 0.139 µM (active) and 0.23 µM (active), respectively.
As to `O=C(c1ccsc1)c1nccc2c1cnc1ccccc12`, the GI50 was 4.44 µM (inactive) in [1]; 22.5 µM (inactive) in assay [2]; 97.7 µM (inactive) in [3]; 0.286 µM (active) in assay [4]; > 100 µM (inactive) in [5]; > 100 µM (inactive) in assay [6]. Also, the GI50 was > 100 µM (inactive) in assay [7]; 77.3 µM (inactive) in [8]; 34.8 µM (inactive) in assay [9]; > 100 µM (inactive) in assay [10]; 61 µM (inactive) in assay [11]; > 100 µM (inactive) in assay [12]. Besides, the GI50 in assay [13] was > 100 µM (inactive); in [14] it was 62.1 µM (inactive); in assay [15] it was 89.9 µM (inactive); in assay [16], 53.5 µM (inactive); in assay [17], 85.1 µM (inactive); in assay [18], 45.2 µM (inactive). For the same molecule, the GI50 was > 100 µM (inactive) in [19] and 45.3 µM (inactive) in [20].
For the molecule `COC(=O)CNC(=O)CNC(=O)CSc1nnc(COc2ccc(Cl)cc2)n1-c1ccccc1`, the GI50 in assay [1] is 36.6 µM (inactive); in [2], 19.2 µM (inactive); in assay [3], > 100 µM (inactive); in assay [4], 17.9 µM (inactive); in assay [5] it was 23.2 µM (inactive); in [6], > 100 µM (inactive). Further, the GI50 in assay [7] was 52.7 µM (inactive); in assay [8], 20.8 µM (inactive); in assay [9] it was > 100 µM (inactive); in assay [10], 68.1 µM (inactive); in assay [11] it was 19.1 µM (inactive); in assay [12], 29.4 µM (inactive). The GI50 is 18.7 µM (inactive) in assay [13]; 38.7 µM (inactive) in [14]; 62.8 µM (inactive) in assay [15]; 86.3 µM (inactive) in [16]; 49.9 µM (inactive) in assay [17]; 19.1 µM (inactive) in [18]. Moreover, the GI50 in assay [19] was 24.4 µM (inactive); in [20], > 100 µM (inactive).
`CN(C)CCNC(=O)c1cc(NC(=O)c2cc(NC(=O)CC/C=C3/[C@@H]4CC[C@H]3N=N4)cn2C)cn1C`: the GI50 in assay [1], in assay [2], in assay [3], in assay [4], in assay [5] and in assay [6] was > 100 µM (inactive) throughout. In addition, the GI50 in assay [7], in assay [8], in assay [9], in assay [10], in assay [11] and in [12] was > 100 µM (inactive) in each case. For the same molecule, the GI50 in assay [13], in assay [14], in assay [15], in [16], in [17] and in assay [18] was > 100 µM (inactive) throughout. Further, the GI50 in [19] and in assay [20] was > 100 µM (inactive) each time.
For the molecule `C=C1C[C@@H]2O[C@H]3[C@H]4[C@@H](C[C@@H](C)[C@@H](OC(C)=O)[C@H]42)[C@@H](C)CO[C@@]3(C)[C@H](OC(=O)CCCCCCC)CC1=O`, the GI50 in assay [1] was 18.7 µM (inactive); in [2], > 10 µM (inactive); in assay [3] it was 15.7 µM (inactive); in assay [4], 21.5 µM (inactive); in [5], 16.5 µM (inactive); in assay [6] it was 17.6 µM (inactive). Besides, the GI50 in [7] is 9.82 µM (inactive); in assay [8], 18.8 µM (inactive); in assay [9] it was 21.2 µM (inactive); in assay [10] it was 15.2 µM (inactive); in assay [11] it was 20.8 µM (inactive); in assay [12], 2.64 µM (inactive). The GI50 in assay [13] is 16.5 µM (inactive); in assay [14], 15.1 µM (inactive); in assay [15] it was 11.9 µM (inactive); in [16] it was 26.5 µM (inactive); in [17] it was 16.8 µM (inactive); in assay [18], 14.4 µM (inactive). Moreover, the GI50 is 18.1 µM (inactive) in [19] and 20.6 µM (inactive) in [20].
Consider `CCN1CCN(c2nc3ccc([N+](=O)[O-])cc3nc2C(=O)c2ccccc2)CC1`, for which the GI50 in assay [1] is 3.23 µM (inactive); in assay [2], 17.8 µM (inactive); in [3], 18.7 µM (inactive); in assay [4] it was 5.78 µM (inactive); in assay [5], 4.98 µM (inactive); in assay [6], 18.8 µM (inactive). Moreover, the GI50 in [7] was 17.3 µM (inactive); in [8], 19.1 µM (inactive); in assay [9] it was 11.8 µM (inactive); in assay [10], 21 µM (inactive); in [11], 14.6 µM (inactive); in [12] it was 12.8 µM (inactive). In addition, the GI50 in assay [13] is 16.3 µM (inactive); in [14] it was 17.1 µM (inactive); in assay [15], 21.8 µM (inactive); in [16], 26 µM (inactive); in assay [17], 17.3 µM (inactive); in [18], 20.1 µM (inactive). Besides, the GI50 was 5.64 µM (inactive) in assay [19] and 17.2 µM (inactive) in [20].
Take `CC(=O)NNc1nc(C)c(C(/C=C/c2cccc([N+](=O)[O-])c2)=N/NC(=S)NN)s1`: the GI50 in [1], in assay [2], in assay [3], in assay [4], in [5] and in assay [6] was > 100 µM (inactive) in each case. Further, the GI50 in assay [7], in assay [8], in assay [9], in assay [10], in [11] and in assay [12] was > 100 µM (inactive) in each case. Moreover, the GI50 in assay [13], in assay [14], in assay [15], in assay [16], in [17] and in [18] was > 100 µM (inactive) throughout. The GI50 in [19] and in assay [20] was > 100 µM (inactive) throughout.
`O=C1/C(=C/c2ccc3c(c2)OCO3)CCC1CN1CCOCC1` (stereo not given): the GI50 in assay [1] was 1.95 µM (inactive); in [2] it was 9.89 µM (inactive); in assay [3], 5.42 µM (inactive); in [4], 16.1 µM (inactive); in assay [5] it was 2.44 µM (inactive); in assay [6], 16 µM (inactive). The GI50 in [7] is 2.17 µM (inactive); in assay [8], 10.5 µM (inactive); in assay [9], 16.7 µM (inactive); in assay [10] it was 2.07 µM (inactive); in assay [11], 3.36 µM (inactive); in assay [12] it was 0.436 µM (active). The GI50 in [13] is 14.3 µM (inactive); in assay [14], 3.25 µM (inactive); in assay [15], 17.4 µM (inactive); in assay [16], 15.4 µM (inactive); in assay [17], 7.05 µM (inactive); in assay [18], 9.68 µM (inactive). Further, the GI50 is 18 µM (inactive) in assay [19] and 8.83 µM (inactive) in assay [20].
On to `CC(C)=CCC[C@](C)(O[C@@H]1O[C@H](CO)[C@@H](O)[C@H](O)[C@H]1O)[C@H]1CC[C@]2(C)[C@@H]1[C@H](O)C[C@@H]1[C@@]3(C)CC[C@@H](O)C(C)(C)[C@@H]3[C@@H](O[C@@H]3O[C@H](CO)[C@@H](O)[C@H](O)[C@H]3O)C[C@]12C.C[C@@H]1O[C@@H](O[C@H]2[C@H](O[C@H]3C[C@]4(C)[C@H](C[C@H](O)[C@@H]5[C@@H]([C@@]6(C)CC[C@H](C(C)(C)O)O6)CC[C@]54C)[C@@]4(C)CC[C@H](O)C(C)(C)[C@H]34)O[C@H](CO)[C@@H](O)[C@@H]2O)[C@H](O)[C@H](O)[C@H]1O`, for which the GI50 in assay [1] is 84.9 µM (inactive); in assay [2], > 100 µM (inactive); in [3], > 100 µM (inactive); in [4], > 100 µM (inactive); in [5] it was > 100 µM (inactive); in [6], > 100 µM (inactive). The GI50 in assay [7], in assay [8], in assay [9], in assay [10], in assay [11] and in assay [12] was > 100 µM (inactive) each time. The GI50 in [13], in assay [14], in assay [15], in assay [16], in assay [17] and in [18] was > 100 µM (inactive) throughout. Besides, the GI50 in [19] and in assay [20] was > 100 µM (inactive) each time.
